Laboratory results published in US9181223B2, “2-aminopyrimidin-6-ones and analogs exhibiting anti-cancer and anti-proliferative activities” (Deciphera Pharmaceuticals, LLC, priority 2013, dated 2015).
Where two headings read alike, the source gives them in different places.

Experiments:
osteoclast precursors = assay: Osteoclast tartrate-resistant acid phosphatase assay; assay type: cell-based; conditions: tartrate-resistant acid phosphatase activity, RANKL and M-CSF, 7-14 days
Description: Osteoclast Tartrate-Resistant Acid Phosphatase Assay
A serial dilution of test compound was dispensed into a 384-well black clear bottom plate (Nalge Nunc International, Rochester, N.Y.). Compound was diluted by the addition of DMEM media supplemented with 10% characterized fetal bovine serum (Invitrogen, Carlsbad, Calif.). Diluted compound was transferred to a 384-well black clear bottom plate. Two-thousand five hundred osteoclast precursors (Lonza, Walkersville, Md.) were added per well in growth media containing Receptor Activator of Nuclear Factor Kappa-beta ligand (RANKL) and M-CSF (R&D Systems, Minneapolis, Minn.). Plates were incubated for 7-14 days at 37 degrees Celsius, 5% CO2, and 95% humidity to allow differentiation of osteoclast precursors. At the end of the incubation period, 10 μL of supernatant from each well was transferred to a clear 384-well plate. Tartrate-resistant acid phosphatase activity in the supernatant samples was determined using an acid phosphatase assay kit (Sigma, St. Louis, Mo.). Absorbance was measured at 550 nm using a plate reader. Data was analyzed using Prism software (Graphpad, San Diego, Calif.) to calculate IC50 values.

[1] = target: T1, unphosphorylated PDGFRβ kinase (uPDGFRβ, Seq. ID No. 3) (Homo sapiens, UniProt P09619); assay: uPDGFRβ kinase assay (ADP production coupled to pyruvate kinase/lactate dehydrogenase); assay type: biochemical; conditions: enzymatic assay, ATP 500 μM
T1 construct: purchased DeCode
T1 sequence (P09619 557-1106): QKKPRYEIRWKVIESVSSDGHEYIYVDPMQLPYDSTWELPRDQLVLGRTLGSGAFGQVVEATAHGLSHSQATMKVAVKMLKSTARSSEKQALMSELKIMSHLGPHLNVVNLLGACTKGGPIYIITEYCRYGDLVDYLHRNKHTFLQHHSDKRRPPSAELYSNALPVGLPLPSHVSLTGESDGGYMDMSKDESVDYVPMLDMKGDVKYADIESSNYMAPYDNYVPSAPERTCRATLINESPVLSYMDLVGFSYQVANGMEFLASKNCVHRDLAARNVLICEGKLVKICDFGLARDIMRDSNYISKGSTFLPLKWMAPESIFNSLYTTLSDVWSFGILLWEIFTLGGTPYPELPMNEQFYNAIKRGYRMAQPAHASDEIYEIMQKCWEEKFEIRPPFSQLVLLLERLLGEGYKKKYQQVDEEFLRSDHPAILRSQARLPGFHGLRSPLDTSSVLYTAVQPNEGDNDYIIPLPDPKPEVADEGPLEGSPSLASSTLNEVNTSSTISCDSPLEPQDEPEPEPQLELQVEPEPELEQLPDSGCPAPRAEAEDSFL
Description: Unphosphorylated […]β) Kinase (Seq. ID No. 3) Assay Activity of unphosphorylated PDGFRβ kinase ([…] No. 3) was determined by following the production of ADP from the kinase reaction with ATP and poly E4Y as substrates through coupling with the pyruvate kinase/lactate dehydrogenase system (e.g., Schindler et al. Science (2000) 289: 1938-1942). In this assay, the oxidation of NADH (thus the decrease at A340 nm) was continuously monitored spectrophometrically. The reaction mixture (100 μL) contained PDGFRβ (DeCode, 15.7 nM), polyE4Y (2.5 mg/mL), MgCl2 (10 mM), pyruvate kinase (4 units), lactate dehydrogenase (0.7 units), phosphoenol pyruvate (1 mM) and NADH (0.28 mM) and ATP (500 μM) in a 90 mM Tris buffer containing 0.2% octyl-glucoside and 1% DMSO, at pH 7.5. The inhibition reaction was started by mixing serial diluted test compound with the above reaction mixture. The absorption at 340 nm was monitored continuously for 4 h at 30° C. on a Polarstar Optima or Synergy 2 plate reader. The reaction rate was calculated using the 1.5 to 2.5 h time frame. Percent inhibition was obtained by comparison of reaction rate with that of a control (i.e. with no test compound). IC50 values were calculated from a series of percent inhibition values determined at a range of inhibitor concentrations using software routines as implemented in the GraphPad Prism software package.

[2] = target: T2, unphosphorylated c-KIT kinase (uKIT, Seq. ID no. 2) (Homo sapiens, UniProt P10721); assay: uKit kinase assay (ADP production coupled to pyruvate kinase/lactate dehydrogenase); assay type: biochemical; conditions: read-out: uKIT
T2 construct: uKit with N-terminal GST fusion used for screening
T2 sequence (P10721 with tags, fused parts or gaps): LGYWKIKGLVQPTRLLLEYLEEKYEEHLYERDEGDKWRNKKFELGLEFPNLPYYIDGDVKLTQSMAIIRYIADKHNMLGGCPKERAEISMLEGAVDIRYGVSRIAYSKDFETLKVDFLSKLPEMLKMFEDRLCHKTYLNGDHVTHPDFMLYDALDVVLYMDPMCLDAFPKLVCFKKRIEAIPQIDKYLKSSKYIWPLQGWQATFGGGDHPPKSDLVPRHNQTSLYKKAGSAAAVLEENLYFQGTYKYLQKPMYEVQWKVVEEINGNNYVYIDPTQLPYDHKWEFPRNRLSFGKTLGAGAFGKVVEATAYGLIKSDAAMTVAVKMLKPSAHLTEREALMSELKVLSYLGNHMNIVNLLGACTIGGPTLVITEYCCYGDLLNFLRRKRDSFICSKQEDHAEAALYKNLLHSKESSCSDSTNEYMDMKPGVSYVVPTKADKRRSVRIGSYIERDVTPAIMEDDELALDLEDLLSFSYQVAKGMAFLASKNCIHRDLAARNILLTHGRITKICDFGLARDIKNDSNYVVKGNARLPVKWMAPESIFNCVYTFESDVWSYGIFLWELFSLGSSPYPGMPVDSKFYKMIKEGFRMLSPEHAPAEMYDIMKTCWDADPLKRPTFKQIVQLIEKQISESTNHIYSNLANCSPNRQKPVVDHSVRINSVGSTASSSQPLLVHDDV
Description: In this assay, the oxidation of NADH (thus the decrease at A340 nm) was continuously monitored spectrophometrically. […] The inhibition reaction was started by mixing serial diluted test compound with the above reaction mixture. The absorption at 340 nm was monitored continuously for 4 hours at 30° C. on Synergy 2 plate reader (BioTech).

M-NFS-60 cells = assay: M-NFS-60 cell proliferation assay (resazurin); assay type: cell-based; conditions: 67 h incubation
Description: M-NFS-60 cells (catalog #CRL-1838) were obtained from the American Type Culture Collection (ATCC, Manassas, Va.). Briefly, cells were grown in suspension in RPMI 1640 medium supplemented with 10% characterized fetal bovine serum (Invitrogen, Carlsbad, Calif.), 0.05 mM 2-mercaptoethanol, and 20 ng/mL mouse recombinant macrophage colony stimulating factor (M-CSF) at 37° C., 5% CO2, and 95% humidity. Cells were allowed to expand until reaching saturation at which point they were subcultured or harvested for assay use.
M-NFS-60 Cell Proliferation Assay
A serial dilution of test compound was dispensed into a 384-well black clear bottom plate (Corning, Corning, N.Y.). Two thousand five hundred cells were added per well in 50 μL complete growth medium. Plates were incubated for 67 h at 37° C., 5% CO2, and 95% humidity. At the end of the incubation period 10 μL of a 440 µM solution of resazurin (Sigma, St. Louis, Mo.) in PBS was added to each well and incubated for an additional 5 h at 37° C., 5% CO2, and 95% humidity. Plates were read on a Synergy2 reader (Biotek, Winooski, Vt.) using an excitation of 540 nm and an emission of 600 nm. IC50 values were calculated from a series of percent inhibition values determined at a range of inhibitor concentrations using software routines as implemented in the GraphPad Prism software package.

SMILES	IC50 (osteoclast precursors) [nM]	IC50 [1] [nM]	IC50 ([2]; enzymatic assay, ATP 2000 μM) [nM]	IC50 [2] [nM]	IC50 (M-NFS-60 cells) [nM]
CCNc1ncc(-c2ccc(Oc3ccnc(-n4cnc(C)c4)c3)c(C)n2)c(=O)[nH]1 [Example 5, 2-(ethylamino)-5-(6-methyl-5-((2-(4-methyl-1H-imidazol-1-yl)pyridin-4-yl)oxy)pyridin-2-yl)pyrimidin-4(3H)-one]	100 to 1000	> 1000	> 1000		
Cc1nc(-c2cnc(NC3CC3)[nH]c2=O)ccc1Oc1ccnc(-c2cnn(C)c2)c1 [Example 14, 2-(cyclopropylamino)-5-(6-methyl-5-((2-(1-methyl-1H-pyrazol-4-yl)pyridin-4-yl)oxy)pyridin-2-yl)pyrimidin-4(3H)-one]	10 to 100	> 1000	> 1000		
Cc1nc(-c2cnc(N3CCCC3)[nH]c2=O)ccc1Oc1ccnc(-c2cnn(C)c2)c1 [Example 9, 5-(6-methyl-5-((2-(1-methyl-1H-pyrazol-4-yl)pyridin-4-yl)oxy)pyridin-2-yl)-2-(pyrrolidin-1-yl)pyrimidin-4(3H)-one]	10 to 100	> 1000		> 1000	
Cc1cc(-c2cnc(NC(C)C)[nH]c2=O)ncc1Oc1ccnc(-c2cnn(C)c2)c1 [Example 18, 2-(isopropylamino)-5-(4-methyl-5-((2-(1-methyl-1H-pyrazol-4-yl)pyridin-4-yl)oxy)pyridin-2-yl)pyrimidin-4(3H)-one]	< 10	10 to 100	10 to 100		< 10
CC(=O)Nc1cc(Oc2ccc(-c3cnc(NC(C)C)[nH]c3=O)nc2C)ccn1 [Example 19, N-(4-((6-(2-(isopropylamino)-6-oxo-1,6-dihydropyrimidin-5-yl)-2-methylpyridin-3-yl)oxy)pyridin-2-yl)acetamide]	10 to 100	100 to 1000	100 to 1000		
Cc1nc(-c2cnc(N3CCCCC3)[nH]c2=O)ccc1Oc1ccnc(-c2cnn(C)c2)c1 [Example 13, 5-(6-methyl-5-((2-(1-methyl-1H-pyrazol-4-yl)pyridin-4-yl)oxy)pyridin-2-yl)-2-(piperidin-1-yl)pyrimidin-4(3H)-one]	10 to 100	> 1000	> 1000		
Cc1nc(-c2cnc(NC3CCOCC3)[nH]c2=O)ccc1Oc1ccnc(-c2cnn(C)c2)c1 [Example 27, 5-(6-methyl-5-((2-(1-methyl-1H-pyrazol-4-yl)pyridin-4-yl)oxy)pyridin-2-yl)-2-((tetrahydro-2H-pyran-4-yl)amino)pyrimidin-4(3H)-one]	10 to 100	> 1000	> 1000		
CNC(=O)c1cc(Oc2ccc(-c3cnc(NC(C)C)[nH]c3=O)nc2)ccn1 [Example 11, 4-((6-(2-(isopropylamino)-6-oxo-1,6-dihydropyrimidin-5-yl)pyridin-3-yl)oxy)-N-methylpicolinamide]	10 to 100	> 1000	> 1000		
COCCNc1ncc(-c2ccc(Oc3ccnc(-c4cnn(C)c4)c3)c(C)n2)c(=O)n1C [Example 26, 2-((2-methoxyethyl)amino)-3-methyl-5-(6-methyl-5-((2-(1-methyl-1H-pyrazol-4-yl)pyridin-4-yl)oxy)pyridin-2-yl)pyrimidin-4(3H)-one]	10 to 100	> 1000	> 1000		10 to 100
CNc1ncc(-c2ccc(Oc3ccnc(-c4cnn(C)c4)c3)c(C)n2)c(=O)[nH]1 [Example 7, 5-(6-methyl-5-((2-(1-methyl-1H-pyrazol-4-yl)pyridin-4-yl)oxy)pyridin-2-yl)-2-(methylamino)pyrimidin-4(3H)-one]	100 to 1000	> 1000	100 to 1000		
Cc1nc(-c2cnc(NC3CCCC3)[nH]c2=O)ccc1Oc1ccnc(-c2cnn(C)c2)c1 [Example 15, 2-(cyclopentylamino)-5-(6-methyl-5-((2-(1-methyl-1H-pyrazol-4-yl)pyridin-4-yl)oxy)pyridin-2-yl)pyrimidin-4(3H)-one]	< 10	100 to 1000	100 to 1000		
Cc1nc(-c2cnc(N3CCOCC3)[nH]c2=O)ccc1Oc1ccnc(-c2cnn(C)c2)c1 [Example 12, 5-(6-methyl-5-((2-(1-methyl-1H-pyrazol-4-yl)pyridin-4-yl)oxy)pyridin-2-yl)-2-morpholinopyrimidin-4(3H)-one]	10 to 100	> 1000	> 1000		
CCn1cc(-c2cc(Oc3ccc(-c4cnc(NC(C)C)[nH]c4=O)nc3C)ccn2)cn1 [Example 21, 5-(5-((2-(1-ethyl-1H-pyrazol-4-yl)pyridin-4-yl)oxy)-6-methylpyridin-2-yl)-2-(isopropylamino)pyrimidin-4(3H)-one]	10 to 100	> 1000	> 1000		
CCNc1ncc(-c2ccc(Oc3ccnc(-c4ccc(C)nc4)c3)c(C)n2)c(=O)[nH]1 [Example 4, 2-(ethylamino)-5-(6-methyl-5-((6′-methyl-[2,3′-bipyridin]-4-yl)oxy)pyridin-2-yl)pyrimidin-4(3H)-one]	100 to 1000	> 1000	> 1000		
CCNc1ncc(-c2ccc(Oc3ccnc(-c4cnn(C)c4)c3)c(C)n2)c(=O)[nH]1 [Example 1, 2-(ethylamino)-5-(6-methyl-5-((2-(1-methyl-1H-pyrazol-4-yl)pyridin-4-yl)oxy)pyridin-2-yl)pyrimidin-4(3H)-one]	10 to 100	> 1000	> 1000		
CCNc1ncc(-c2ccc(Oc3ccnc(-c4cnn(C)c4)c3)cn2)c(=O)[nH]1 [Example 8, 2-(ethylamino)-5-(5-((2-(1-methyl-1H-pyrazol-4-yl)pyridin-4-yl)oxy)pyridin-2-yl)pyrimidin-4(3H)-one]	100 to 1000	> 1000	100 to 1000		
Cc1nc(-c2cnc(N(C)C)[nH]c2=O)ccc1Oc1ccnc(-c2cnn(C)c2)c1 [Example 2, 2-(dimethylamino)-5-(6-methyl-5-((2-(1-methyl-1H-pyrazol-4-yl)pyridin-4-yl)oxy)pyridin-2-yl)pyrimidin-4(3H)-one]	10 to 100	> 1000	> 1000		
Cc1cc(-c2cnc(N3CCCC3)[nH]c2=O)ncc1Oc1ccnc(-c2cnn(C)c2)c1 [Example 20, 5-(4-methyl-5-((2-(1-methyl-1H-pyrazol-4-yl)pyridin-4-yl)oxy)pyridin-2-yl)-2-(pyrrolidin-1-yl)pyrimidin-4(3H)-one]	< 10	100 to 1000	100 to 1000		
Cc1nc(-c2cnc(NC3CC3)n(C)c2=O)ccc1Oc1ccnc(-c2cnn(C)c2)c1 [Example 17, 2-(cyclopropylamino)-3-methyl-5-(6-methyl-5-((2-(1-methyl-1H-pyrazol-4-yl)pyridin-4-yl)oxy)pyridin-2-yl)pyrimidin-4(3H)-one]	< 10	> 1000	> 1000		
Cc1nc(-c2cnc(NC(C)C)[nH]c2=O)ccc1Oc1ccnc(-c2cnn(C)c2)c1 [Example 3, 2-(isopropylamino)-5-(6-methyl-5-((2-(1-methyl-1H-pyrazol-4-yl)pyridin-4-yl)oxy)pyridin-2-yl)pyrimidin-4(3H)-one]	10 to 100	> 1000	100 to 1000		
